Source: patent publication US7615380B2, “Methods for modulating an immune response by modulating KRC activity” (President and Fellows of Harvard College, priority 2001, dated 2009)

Experiments:
Format in all cases: cell-based, human
IL-2 promoter = test: IL-2 promoter, NFAT/AP-1 and NFAT luciferase reporters and IL-2 RT-PCR in Jurkat cells
Description: FIG. 19(A) Stably transfected Jurkat T cell clones with vector (vec) or KRC (Jurkat-KRC) were stimulated with PMA (50 ng/mL) plus ionomycin (2 μM) for 6 hours. IL-2 mRNA abundance was determined by RT-PCR with tubulin as an internal control. FIG. 19(B) Jurkat cells were transiently transfected with an IL-2-Luciferase reporter along with Vector, KRC, or KRCtr (amino acids 204-1055) and, in all cases, a CMV-β-Gal reporter as an internal control (see text for details). 24 hours later, cells were stimulated with PMA plus ionomycin for 6 hours (upper panel) or Raji cells loaded with SEE for 8 hours (lower panel). Luciferase activity was determined and normalized for β-Galactosidase activity. FIG. 19(C) Jurkat cells were transiently transfected with NFAT/AP-1-, NFAT-, or AP-1-Luciferase reporters and treated as above.
For each transfection, 5×10^6 Jurkat cells were incubated with either IL2-Luc, NFAT/AP1-Luc or AP1-Luc reporter DNA together with pEF vector or pEF-KRC and CMV-βGAL as normalization control in 0.4 ml of RPMI and transfected by electroporation (260 v, 975 uF). Transfected cells were cultured at 37° C. for 20 h in RPMI 1640 medium (Gibco BRL) supplemented with 10% fetal bovine serum. Transfected cells were stimulated with PMA (50 ng/ml) and ionomycin (2 uM) for 6 hours prior to luciferase (Promega) and β-galactosidase assays (Galacton-PLUS substrate system, TROPIX, Inc).
Total RNA was isolated from T cells using TRIZOL™ reagent (Gibco/BRL). One (1) μg of total RNA was reverse transcribed using iScript cDNA Synthesis Kit (BioRad). PCR was performed with 2 uM of each primer (listed below) and 2.5 units of Platinum High fidelity enzyme (Invitrogen) according to the manufacturer.
Jurkat cells were transfected by electroporation and incubated for 20 h at 37° C. before stimulation for 8 h with the Raj i B cell line and Staphylococcal Enteroxin E (SEE) using Raji cells (1:1 with Jurkat cells) and SEE (200 ng/ml).

IL-2 = IL-2 ELISA in stably transfected Jurkat clones; conditions: stable Jurkat clones, PMA and ionomycin
Description: In panel A Jurkat T cells were stably transfected with vector (pEF) or KRC expression plasmids. Stable clones were stimulated for 18 hours with PMA (50 ng/mL) plus ionomycin (2 μM) and IL-2 production was measured by ELISA. In panel B Primary CD4+ T cells were activated for 36 hours and subsequently transduced with control (RV), KRC, or KRC dominant negative (ZAS2) bicistronic GFP-expressing retroviruses. GFP-positive cells were sorted and stimulated for 24 hours with anti-CD3 or anti-CD3/anti-CD28 antibodies and IL-2 production was measured by ELISA. In panel C CD4 T cells from KRC +/+ or −/− mice were stimulated with anti-CD3 (1.0 μg/mL)/CD28 (0.5 μg/mL) antibodies for 24 hours and IL-2 production was measured by ELISA. In panel D CD4 T cells from KRC +/+ or −/− mice were stimulated with anti-CD3/CD28 antibodies for 72 hours in the presence of 200 U/mL human IL-2. IFNγ production was measured by ELISA.
In this example, increased IL-2 production in Jurkat T cells stably expressing KRC was measured by ELISA. IL-2 promoter activation requires antigen receptor engagement plus an accessory signal usually supplied by an antigen presenting cell (Jain, J., et al. (1995) Curr. Biol. 7:333-342). […] G418 drug-resistant Jurkat clones were expanded and analyzed for IL-2 secretion following activation.

MAPK (ERK, p38, JNK) = test: MAPK activity in Jurkat cells (PathDetect reporter, immunoprecipitation-kinase assay)
Description: FIG. 20(A) Jurkat cells were transiently transfected with AP-1 Luciferase reporter along with KRC and RasN17 DN vectors. 24 hours later cells were pretreated with Rottlerin (10 μM) and stimulated for 6 hours with PMA plus ionomycin. Luciferase activity was measured as above. FIG. 20(B) Jurkat cells were transfected with a GAL4 Luciferase reporter along with a GAL4 DNA binding domain, GAL4-ATF2, or GAL4-ELK1 with or without KRC. 24 hours later, cells were stimulated with PMA plus ionomycin and analyzed for Luciferase activity as above. FIG. 20(C) Jurkat cells were transiently transfected with FLAG-JNK2, and either Vector, KRC, or MKK7. 48 hours later, cells were stimulated with PMA plus ionomycin for 6 hours and JNK activity was determined by immunoprecipitation/kinase assay. […]
KRC may enhance AP-1 function indirectly through the modulation of MAPK activity, kinases downstream of Ras that are known to potently stimulate AP-1 function (Binetruy, B., et al. (1991) Nature 351:122-127; Deng, T., and M. Karin (1994) Nature 371:171-175; Murphy, L., et al. (2002) Nat. Cell Biol. 4: 556-564). […] Co-expression of KRC with HA-ERK1, myc-ERK2, Flag-P38 and Flag-JNK2 was performed and the activity of each kinase was measured using an immunoprecipitation-kinase assay with specific substrates, GST-Elk1, GST-ATF2 and GST-Jun for each MAPK. […]

Substance: KRC: full-length KRC zinc finger protein (SEQ ID NO:2) overexpressed from an expression vector
- PMA/ionomycin induced activity of NFAT reporter (IL-2 promoter; Jurkat cells): not further increased
- IL-2 promoter-luciferase induction (IL-2 promoter; Jurkat cells, PMA plus ionomycin): approximately 10 fold
- transactivation of multimerized NFAT/AP-1 and AP-1 elements (IL-2 promoter; Jurkat cells, PMA/ionomycin): enhanced PMA/ionomycin-induced transactivation
- IL-2 promoter activity increase (IL-2 promoter; Jurkat cells, Raji cells plus SEE): approximately 10 fold
- IL-2 mRNA transcripts (RT PCR) (IL-2 promoter; stable Jurkat clones, activated): higher levels of IL-2 transcripts
- IL-2 production (IL-2): substantially greater amounts of IL-2
- MAPK activity, immunoprecipitation-kinase assay (MAPK (ERK, p38, JNK); ERK1, ERK2, P38, JNK2): no detectable effect on any of the MAPKs
- MAPK / p38 activity, PathDetect reporter (ELK-1, ATF2) (MAPK (ERK, p38, JNK); Jurkat cells): unable to modulate either MAPK or p38 activity
